Data from PubChem BioAssay AID328 (DTP/NCI, 2004).
“And” between values parts separate entries of the source, which are not always exact repeats. Equal values may be shown once. Inconclusive results and toxic doses are left out. The calls were made as follows: active = survival T/C of 150% or more; inactive = T/C below 125% in these data.

Tested on: BDF1 mice, P388 leukemia ip, median survival T/C
Experiment: NCI In Vivo Anticancer Drug Screen. Data for tumor model P388 Leukemia (intraperitoneal) in B6D2F1 (BDF1) mice
Conditions: endpoint: median survival time, higher = longer survival
Summary of the method: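 Compound-treated tumour-bearing mice were compared with vehicle-treated controls. Survival was recorded, and the value is the treated-group measurement divided by the control-group measurement (T/C).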

[1] = dose: 25.0 mg/kg/injection, schedule: Q01DX009 (ip), vehicle: saline
[2] = dose: 50.0 mg/kg/injection, schedule: Q01DX009 (ip), vehicle: saline
[3] = dose: 100.0 mg/kg/injection, schedule: Q04DX003 (ip), vehicle: saline
[4] = dose: 50.0 mg/kg/injection, schedule: Q01DX009 (ip), vehicle: saline with Tween-80
[5] = dose: 100.0 mg/kg/injection, schedule: Q01DX009 (ip), vehicle: saline with Tween-80
[6] = dose: 200.0 mg/kg/injection, schedule: Q01DX009 (ip), vehicle: saline with Tween-80
[7] = dose: 100.0 mg/kg/injection, schedule: Q04DX003 (ip), vehicle: saline with Tween-80
[8] = dose: 200.0 mg/kg/injection, schedule: Q04DX003 (ip), vehicle: saline with Tween-80
[9] = dose: 400.0 mg/kg/injection, schedule: Q04DX003 (ip), vehicle: saline with Tween-80
[10] = dose: 75.0 mg/kg/injection, schedule: Q01DX009 (ip), vehicle: Klucel (hydroxypropylcellulose) (HPC)
[11] = dose: 400.0 mg/kg/injection, schedule: Q01DX009 (ip), vehicle: saline with Tween-80
[12] = dose: 0.78 mg/kg/injection, schedule: Q04DX003 (ip), vehicle: saline
[13] = dose: 6.25 mg/kg/injection, schedule: Q04DX003 (ip), vehicle: saline
[14] = dose: 25.0 mg/kg/injection, schedule: Q04DX003 (ip), vehicle: saline
[15] = dose: 50.0 mg/kg/injection, schedule: Q04DX003 (ip), vehicle: saline
[16] = dose: 100.0 mg/kg/injection, schedule: Q01DX009 (ip), vehicle: saline
[17] = dose: 200.0 mg/kg/injection, schedule: Q01DX009 (ip), vehicle: saline
[18] = dose: 400.0 mg/kg/injection, schedule: Q01DX009 (ip), vehicle: saline

Measured: T/C

Cc1ccc(S(=O)CC(Cl)c2ccccc2)cc1 (stereo not given)
inactive: dose: 50.0 mg/kg/injection, schedule: Q01DX009 (ip), vehicle: other 105 % of control | dose: 100.0 mg/kg/injection, schedule: Q01DX009 (ip), vehicle: other 106 % of control | dose: 200.0 mg/kg/injection, schedule: Q01DX009 (ip), vehicle: other 100 % of control

CC(=O)OCC(=O)[C@@]1(O)CC[C@H]2[C@@H]3CCC4=CC(=O)C=C[C@]4(C)[C@H]3[C@@H](O)C[C@@]21C
inactive: [1] 91 % of control | [2] 91 % of control | [3] 109 % of control

COC(OC)c1ccccc1
inactive: [4] 99 % of control | [5] 115 % of control | [6] 108 % of control

O=C1C2ON=C(c3ccccc3)C2C(=O)N1OS(=O)(=O)c1ccccc1 (stereo not given)
inactive: [5] 100 % of control | [7] 100 % of control | [6] 109 % of control | [8] 100 % of control | [9] 100 % of control

Cc1cccc(Nc2sc(C(=O)c3cc4cc(Cl)ccc4o3)c(N)c2C#N)c1
inactive: [4] 108 % of control | [5] 102 % of control | [6] 111 % of control

O=[N+]([O-])/C=C/c1c(Cl)cccc1Cl
inactive: dose: 50.0 mg/kg/injection, schedule: Q04DX003 (ip), vehicle: other 122 % of control

CCc1ccc(C(C)(C)C)cc1
inactive: dose: 50.0 mg/kg/injection, schedule: Q04DX003 (ip), vehicle: saline with Tween-80 109 % of control | [7] 104 % of control | dose: 132.0 mg/kg/injection, schedule: Q01DX009 (ip), vehicle: saline with Tween-80 118 % of control | [8] 100 % of control

O=C(CC(=O)C(F)(F)F)c1csc2ccccc12
inactive: dose: 12.5 mg/kg/injection, schedule: Q01DX009 (ip), vehicle: saline with Tween-80 100 % of control | dose: 25.0 mg/kg/injection, schedule: Q01DX009 (ip), vehicle: gum acacia 112 % of control | dose: 25.0 mg/kg/injection, schedule: Q01DX009 (ip), vehicle: saline with Tween-80 112 % of control | dose: 25.0 mg/kg/injection, schedule: Q04DX003 (ip), vehicle: gum acacia 111 % of control | dose: 50.0 mg/kg/injection, schedule: Q01DX001 (ip), vehicle: Klucel (hydroxypropylcellulose) (HPC) 104 % of control | dose: 50.0 mg/kg/injection, schedule: Q01DX009 (ip), vehicle: gum acacia 120 % of control | [4] 91 % of control | dose: 50.0 mg/kg/injection, schedule: Q04DX003 (ip), vehicle: gum acacia 100 % of control | dose: 66.0 mg/kg/injection, schedule: Q01DX009 (ip), vehicle: gum acacia 107 % of control | dose: 66.0 mg/kg/injection, schedule: Q01DX009 (ip), vehicle: saline with Tween-80 120 % of control | [10] 115 % of control | dose: 100.0 mg/kg/injection, schedule: Q01DX001 (ip), vehicle: Klucel (hydroxypropylcellulose) (HPC) 113 % of control | dose: 100.0 mg/kg/injection, schedule: Q04DX003 (ip), vehicle: gum acacia 107 % of control and 111 % of control | dose: 115.0 mg/kg/injection, schedule: Q01DX009 (ip), vehicle: Klucel (hydroxypropylcellulose) (HPC) 120 % of control | dose: 150.0 mg/kg/injection, schedule: Q01DX009 (ip), vehicle: gum acacia 100 % of control | dose: 200.0 mg/kg/injection, schedule: Q01DX001 (ip), vehicle: Klucel (hydroxypropylcellulose) (HPC) 86 % of control

Cc1ccc(Sc2cccc3c(C)c4cccc5c4c(c23)C[S+]5c2ccc(C)cc2)cc1 (stereo not given)
inactive: dose: 1.5 mg/kg/injection, schedule: Q04DX003 (ip), vehicle: saline with Tween-80 100 % of control | dose: 3.0 mg/kg/injection, schedule: Q04DX003 (ip), vehicle: saline with Tween-80 104 % of control | dose: 6.0 mg/kg/injection, schedule: Q04DX003 (ip), vehicle: saline with Tween-80 100 % of control

COc1ccc(/C=C/C(=O)c2ccc(OC)c(OC)c2)cc1OC
inactive: [5] 90 % of control | [6] 104 % of control | [11] 118 % of control

NC(CSCc1ccccc1)CSCc1ccccc1
inactive: [12] 99 % of control | dose: 1.56 mg/kg/injection, schedule: Q04DX003 (ip), vehicle: saline 86 % of control and 91 % of control | dose: 6.25 mg/kg/injection, schedule: Q01DX009 (ip), vehicle: saline 107 % of control | [13] 99 % of control and 104 % of control | dose: 12.5 mg/kg/injection, schedule: Q01DX009 (ip), vehicle: saline 109 % of control | dose: 12.5 mg/kg/injection, schedule: Q04DX003 (ip), vehicle: saline 94 % of control and 95 % of control and 100 % of control | [1] 118 % of control | [14] 99 % of control and 100 % of control and 120 % of control | [2] 109 % of control | [15] 104 % of control | [16] 109 % of control

NC(=S)c1cncnc1N
inactive: [7] 91 % of control

COc1ccc(-c2cc(-c3ccc(Cl)cc3)no2)cc1
inactive: dose: 100.0 mg/kg/injection, schedule: Q01DX009 (ip), vehicle: Klucel (hydroxypropylcellulose) (HPC) 90 % of control | dose: 100.0 mg/kg/injection, schedule: Q04DX003 (ip), vehicle: Klucel (hydroxypropylcellulose) (HPC) 100 % of control | dose: 200.0 mg/kg/injection, schedule: Q01DX009 (ip), vehicle: Klucel (hydroxypropylcellulose) (HPC) 90 % of control | dose: 200.0 mg/kg/injection, schedule: Q04DX003 (ip), vehicle: Klucel (hydroxypropylcellulose) (HPC) 100 % of control | dose: 400.0 mg/kg/injection, schedule: Q01DX009 (ip), vehicle: Klucel (hydroxypropylcellulose) (HPC) 100 % of control | dose: 400.0 mg/kg/injection, schedule: Q04DX003 (ip), vehicle: Klucel (hydroxypropylcellulose) (HPC) 100 % of control

CCCCN(CCCC)CCC(O)c1cc(-c2ccc(C(F)(F)F)cc2)nc(C(F)(F)F)c1 (stereo not given)
inactive: [4] 106 % of control

O=C(c1ccc(Cl)cc1)n1c(Cl)c(/C=N\Nc2cccc([N+](=O)[O-])c2)c2ccccc21
inactive: dose: 400.0 mg/kg/injection, schedule: Q01DX001 (ip), vehicle: Klucel (hydroxypropylcellulose) (HPC) 89 % of control

CSc1nc(Cl)cc(N2CC2)n1
inactive: dose: 0.19 mg/kg/injection, schedule: Q04DX003 (ip), vehicle: saline 104 % of control | dose: 0.39 mg/kg/injection, schedule: Q01DX009 (ip), vehicle: saline 95 % of control | dose: 0.39 mg/kg/injection, schedule: Q04DX003 (ip), vehicle: saline 109 % of control | dose: 0.5 mg/kg/injection, schedule: Q01DX009 (ip), vehicle: saline 91 % of control | dose: 0.78 mg/kg/injection, schedule: Q01DX009 (ip), vehicle: saline 100 % of control | [12] 100 % of control | dose: 1.0 mg/kg/injection, schedule: Q01DX009 (ip), vehicle: saline 116 % of control | dose: 2.0 mg/kg/injection, schedule: Q01DX009 (ip), vehicle: saline 95 % of control | dose: 3.6 mg/kg/injection, schedule: Q04DX003 (ip), vehicle: saline 100 % of control

CC(=O)Nc1ccc(S(=O)(=O)NC(N)=O)cc1
inactive: [5] 105 % of control | [11] 98 % of control

CCOC(=O)C(NC=O)C(=O)OCC
inactive: [2] 105 % of control | [16] 94 % of control | [17] 93 % of control | [18] 93 % of control

Ic1ncnc2nc[nH]c12
inactive: [10] 113 % of control | [16] 104 % of control | [7] 95 % of control | dose: 150.0 mg/kg/injection, schedule: Q01DX009 (ip), vehicle: Klucel (hydroxypropylcellulose) (HPC) 113 % of control | [17] 108 % of control | [8] 104 % of control | dose: 300.0 mg/kg/injection, schedule: Q01DX009 (ip), vehicle: Klucel (hydroxypropylcellulose) (HPC) 109 % of control | [18] 100 % of control | [9] 95 % of control

CN(C)c1ccc(C(O)(Cc2cccnc2)c2ccc(N(C)C)cc2)cc1
inactive: [4] 113 % of control | [5] 100 % of control | [6] 96 % of control

O=S1(=O)CCCCO1
inactive: dose: 11.0 mg/kg/injection, schedule: Q01DX009 (ip), vehicle: saline 90 % of control | dose: 16.5 mg/kg/injection, schedule: Q01DX009 (ip), vehicle: saline 100 % of control | [1] 109 % of control | [14] 95 % of control | dose: 37.5 mg/kg/injection, schedule: Q01DX009 (ip), vehicle: saline 100 % of control | [15] 100 % of control | [3] 104 % of control

OCCN1CCN(CC/C=C2\c3ccccc3COc3ccc(Cl)cc32)CC1
inactive: [13] 107 % of control | [14] 109 % of control
